Measurements: PMC8037530, “Synthesis and Hybrid SAR Property Modeling of Novel Cholinesterase Inhibitors” (International Journal of Molecular Sciences, 2021)

Assays:
[1] = biological target: T1, AChE from electric eel (Electrophorus electricus) (Electrophorus electricus, UniProt O42275); assay: In vitro AChE inhibition, modified Ellman's method; type: biochemical
T1 construct: purchased Sigma, St. Louis, MO, USA
Experimental: (§1) The ability of all the prepared compounds to inhibit AChE from electric eel (Electrophorus electricus) and BChE from equine serum (both purchased from Sigma, St. Louis, MO, USA) was determined in vitro using a modified Ellman’s method, as described in detail elsewhere. This is a simple, rapid, and direct method to determine the SH and -S-S- group content in proteins. The enzyme activity is measured indirectly by quantifying the concentration of the 5-thio-2-nitrobenzoic acid ion formed in the reaction between the thiol reagent 5,5’-dithiobis-2nitrobenzoic acid (DTNB) and thiocholine, which is a product of acetylthiocholine hydrolysis catalyzed by cholinesterases. The effectiveness of the tested inhibitors is expressed as the IC50 values.
(§2) The enzyme activity in the final reaction mixture (2 mL) was 0.2 U/mL, the concentration of the substrate (acetylthiocholine or butyrythiocholine) was 40 µM, and the concentration of DTNB was 0.1 mM for all reactions. All reactions were carried out at 25 °C in the presence of phosphate-buffered saline (0.1 M, pH 7.4) in a glass cuvette with a 1 cm optical path. All the studied inhibitors were dissolved in DMSO (concentration 0.01 M) and then diluted in demineralized water as necessary. […] All measurements were carried out in triplicate, and the average values of the reaction rate (v0—reaction in the absence of the inhibitor, vi—reaction in the presence of the inhibitor) were used for construction of the dependence v0/vi vs. concentration of the inhibitor.

BChE from equine serum = biological target: T2, BChE from equine serum (Equus caballus, UniProt P81908); assay: In vitro BChE inhibition, modified Ellman's method; type: biochemical; settings: for SI (index selectivity) = IC50 (AChE)/IC50 (BChE): ratio IC50 AChE/IC50 BChE
T2 construct: BChE from equine serum; purchased Sigma, St. Louis, MO, USA; host or cells: equine serum
T2 sequence (P81908 whole entry): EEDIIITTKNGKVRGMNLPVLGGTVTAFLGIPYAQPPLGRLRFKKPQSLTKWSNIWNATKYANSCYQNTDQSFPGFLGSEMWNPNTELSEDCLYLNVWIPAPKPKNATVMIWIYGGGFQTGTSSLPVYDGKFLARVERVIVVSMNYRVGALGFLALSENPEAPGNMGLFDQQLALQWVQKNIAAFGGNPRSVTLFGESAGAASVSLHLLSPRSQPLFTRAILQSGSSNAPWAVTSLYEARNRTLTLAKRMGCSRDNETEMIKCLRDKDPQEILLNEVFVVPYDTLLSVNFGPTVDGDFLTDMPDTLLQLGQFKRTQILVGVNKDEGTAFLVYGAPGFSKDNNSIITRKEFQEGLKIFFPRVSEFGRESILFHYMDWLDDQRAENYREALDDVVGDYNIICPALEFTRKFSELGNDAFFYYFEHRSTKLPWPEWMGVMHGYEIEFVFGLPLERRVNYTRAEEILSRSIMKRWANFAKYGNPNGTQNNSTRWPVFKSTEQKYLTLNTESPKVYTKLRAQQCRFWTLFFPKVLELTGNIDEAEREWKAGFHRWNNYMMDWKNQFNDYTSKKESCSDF
Experimental: as §1, §2

[2] = Determination of lipophilicity by RP-HPLC (capacity factor k); type: physicochemical; settings: C18, isocratic MeOH 72%/H2O 28%, 40 °C
Experimental: The lipophilicity of all the target compounds was investigated by means of RP-HPLC determination of capacity factors k with a subsequent calculation of log k. The retention times of individual compounds were determined under isocratic conditions with methanol as an organic modifier in the mobile phase using end-capped non-polar C18 stationary RP columns.
The HPLC separation system Agilent 1200 series equipped with a DAD SL (Agilent Technologies) was used. A chromatographic column Symmetry® C18 5 μm, 4.6 × 250 mm, Part No. W21751W016 (Waters Corp., Milford, MA, USA) was applied. The HPLC separation process was monitored by the ChemStation for LC 3D chromatography software (Agilent Technologies). Isocratic elution by a mixture of MeOH p.a. (72%) and H2O-HPLC Mili-Q grade (28%) as a mobile phase was used for the determination of the capacity factor k. The total flow of the column was 1.0 mL/min, injection 20 μL, column temperature 40 °C, and sample temperature 10 °C. The detection wavelength of 210 nm was chosen. A KI methanolic solution was used for the determination of the dead times (tD). Retention times (tR) were measured in minutes. The capacity factors k were calculated according to the formula k = (tR − tD)/tD, where tR is the retention time of the solute and tD is the dead time obtained using an unretained analyte. Each experiment was repeated three times.

[3] = In vitro cell viability assay (CCK-8); type: cell-based; settings: human, THP-1 cells (human monocytic leukemia), read-out: relative cell viability
Experimental: The human monocytic leukemia THP-1 cell line was selected for this purpose, as we described previously. Nor 2 neither 28 show negative effect on relative cell viability up to the concentration of 30 µM. The relative cell viability was around 100% at this concentration. It makes compounds 2 and 28 interesting for further pharmacological evaluation and allows them to become lead compounds.
Human monocytic leukemia THP-1 cells were used for in vitro antiproliferative assays. Cells were obtained from the European Collection of Cell Cultures (ECACC, Salisbury, UK) and routinely cultured in Roswell Park Memorial Institute RPMI 1640 medium supplemented with 10% fetal bovine serum (FBS), 2% L-glutamine, 1% penicillin and streptomycin (all from Sigma-Aldrich) at 37 °C with 5% CO2. Cells were passaged twice a week. The effect of the compounds on cell viability was determined using a Cell Counting Kit-8 (CCK-8, 2-(2-methoxy-4-nitrophenyl)-3-(4-nitrophenyl)-5-(2,4-disulfophenyl)-2H-tetrazolium, monosodium salt, Sigma) according to the manufacturer’s instructions. The compounds were dissolved in DMSO and added to the cell suspension in the RPMI 1640 medium without FBS (5 × 10^5 cells/mL). […] After this incubation period, the relative cell viability (the ratio between cells treated with compounds and cells treated only with DMSO) was determined by CCK-8 kit.

T1 sequence (O42275 24-633): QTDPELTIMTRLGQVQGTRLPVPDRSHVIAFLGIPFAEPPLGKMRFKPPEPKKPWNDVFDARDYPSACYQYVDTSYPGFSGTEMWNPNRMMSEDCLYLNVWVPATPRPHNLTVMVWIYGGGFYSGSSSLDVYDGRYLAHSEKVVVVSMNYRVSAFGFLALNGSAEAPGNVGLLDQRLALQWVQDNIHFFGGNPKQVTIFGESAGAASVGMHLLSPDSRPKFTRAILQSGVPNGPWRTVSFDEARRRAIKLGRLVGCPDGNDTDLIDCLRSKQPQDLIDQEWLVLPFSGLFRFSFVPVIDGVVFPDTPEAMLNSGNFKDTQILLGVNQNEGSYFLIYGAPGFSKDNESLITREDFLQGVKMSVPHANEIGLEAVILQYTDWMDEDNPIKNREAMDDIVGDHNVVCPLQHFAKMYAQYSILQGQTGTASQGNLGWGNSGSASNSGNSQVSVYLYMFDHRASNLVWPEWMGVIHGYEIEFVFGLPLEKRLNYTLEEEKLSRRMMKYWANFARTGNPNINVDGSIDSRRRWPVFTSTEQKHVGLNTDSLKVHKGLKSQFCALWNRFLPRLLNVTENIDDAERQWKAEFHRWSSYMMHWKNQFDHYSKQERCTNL

Compound	IC50 [1]	IC50 (BChE from equine serum)	SI (index selectivity) = IC50 (AChE)/IC50 (BChE) (BChE from equine serum)	log k [2]	viability at 24 h, 30 µM [3]
COc1ccccc1NC(=O)c1ccc(NC(=O)OCc2ccccc2)cc1O [Compound 2, Benzyl{3-hydroxy-4-[(2-methoxyphenyl)carbamoyl]phenyl}carbamate]	50.1 ± 1.57 µM	22.2 ± 0.53 µM	2.26	0.3368	~100%
O=C(Nc1ccc(C(=O)Nc2c(F)cc(F)cc2F)c(O)c1)OCc1ccccc1 [Compound 28, Benzyl{3-hydroxy-4-[(2,4,6-trifluorophenyl)carbamoyl]phenyl}carbamate]	49.87 ± 0.09 µM	31 ± 2.11 µM	1.61	-0.0131	~100%
O=C(Nc1ccc(C(=O)Nc2ccc(Br)cc2Br)c(O)c1)OCc1ccccc1 [Compound 26, Benzyl{4-[(2,4-dibromophenyl)carbamoyl]-3-hydroxyphenyl}carbamate]	94.9 ± 0.97 µM	262 ± 5.1 µM	0.36	0.7366	
O=C(Nc1ccc(C(=O)Nc2ccccc2Cl)c(O)c1)OCc1ccccc1 [Compound 9, Benzyl{4-[(2-chlorophenyl)carbamoyl]-3-hydroxyphenyl}carbamate]	41.86 ± 0.15 µM	140.1 ± 0.35 µM	0.30	0.5188	
O=C(Nc1ccc(C(=O)Nc2cccc(Cl)c2)c(O)c1)OCc1ccccc1 [Compound 10, Benzyl{4-[(3-chlorophenyl)carbamoyl]-3-hydroxyphenyl}carbamate]	61.6 ± 1.74 µM	204 ± 7.49 µM	0.30	0.6411	
O=C(Nc1ccc(C(=O)Nc2c(F)cccc2F)c(O)c1)OCc1ccccc1 [Compound 19, Benzyl{4-[(2,6-difluorophenyl)carbamoyl]-3-hydroxyphenyl}carbamate]	64.3 ± 4.74 µM	42.9 ± 2.13 µM	1.50	-0.1205	
O=C(Nc1ccc(C(=O)Nc2ccc(F)cc2)c(O)c1)OCc1ccccc1 [Compound 8, Benzyl{4-[(4-fluorophenyl)carbamoyl]-3-hydroxyphenyl}carbamate]	47.4 ± 0.61 µM	105.8 ± 0.43 µM	0.45	0.3924	
O=C(Nc1ccc(C(=O)Nc2cc(F)ccc2F)c(O)c1)OCc1ccccc1 [Compound 18, Benzyl{4-[(2,5-difluorophenyl)carbamoyl]-3-hydroxyphenyl}carbamate]	58.31 ± 0.2 µM	157 ± 3.11 µM	0.37	0.4012	
